What was measured:
[1] = tested on: MOLM-13 cell line carrying the FLT3-WT/ITD heterogeneous mutation; experiment: MOLM-13 cell line xenografted mouse model, anti-tumor efficacy; assay type: in vivo, nude mice; conditions: MOLM-13 xenograft, Compound A 10 mg/kg, venetoclax 100 mg/kg; for Maximum inhibition (%): oral once a day for 14 days, combination 10 + 100 mg/kg, largest tumor inhibition rate during observation
Procedure: In a mouse model xenografted with the MOLM-13 (DSMZ no. ACC 554) cell line carrying the FLT3-WT/ITD heterogeneous mutation, a comparative or combination efficacy test of the FLT3 inhibitor, 5-chloro-N-(3-cyclopropyl-5-(((3R,5S)-3,5-dimethylpiperazine-1-yl) methyl) phenyl)-4-(6-methyl-1H-indol-3-yl) pyrimidin-2-amine (hereinafter ‘Compound A’) and the Bcl-2 inhibitor, venetoclax was conducted.
The MOLM-13 cell line was purchased from Deutsche Sammlung von Mikroorganismen und Zellkulturen (DSMZ) GmbH. To construct a mouse model xenografted with this MOLM-13 cell line, 5-week-old male nude mice were purchased from Charles River Laboratories Japan, Inc.
The MOLM-13 cell line was injected subcutaneously into nude mice at 5×10^6 cells/0.2 mL/mouse, and was allowed to grow. Mice having a tumor volume of 55 to 415 mm^3 (length×width^2×0.5) were selected on the day of administration, and after having been divided into 4 groups (3 mice each in the control group and the compound A group, 4 mice each in the venetoclax group and the compound A and venetoclax combination group) so that the average tumor volume of each group was similar, the control group was administered for 11 days, and each drug administration group received individual medications for 14 days. The control group was measured for 12 days, and each drug administration group was measured for 15 days.
The control group received an oral administration of a mixed solution of DMSO/PEG400/DW (ratio=0.5/2/7.5, volume/volume/volume) once a day, the compound A group received an oral administration once a day at a dose of 10 mg/kg/day, and the venetoclax group received an oral administration once a day at a dose of 100 mg/kg/day. […]
The maximum inhibition rate (%) and the change in weight loss (%) of mice were calculated, and the experimental results are shown in Table 2. […] The change in weight loss (%) was calculated from “(1−body weight on the measurement day/weight on the start date of administration)×100%”. Relative tumor volume was calculated from “tumor volume on measurement day/initial tumor volume×100%”.

[2] = tested on: MV-4-11 cell line with FLT3 ITD/ITD isogenic mutation; experiment: MV-4-11 cell line xenografted mouse model, anti-tumor efficacy; assay type: in vivo, BALB/c Nude mouse; conditions: MV-4-11 xenograft, Compound A 3 mg/kg; for Maximum inhibition (%): oral once a day for 21 days, combination 3 + 100 mg/kg, largest tumor inhibition rate during observation
Excerpt: In a mouse model xenografted with the cell line MV-4-11 with FLT3 ITD/ITD isogenic mutation (ATCC, CRL-9591), a comparative or combination efficacy test of the FLT3 inhibitor, 5-chloro-N-(3-cyclopropyl-5-(((3R,5S)-3,5-dimethylpiperazin-1-yl) methyl) phenyl)-4-(6-methyl-1H-indol-3-yl) pyrimidin-2-amine (hereinafter ‘Compound A’), and the Bcl-2 inhibitor, 4-[4-[[2-(4-chlorophenyl)-4,4-dimethylcyclohexen-1-yl]methyl] piperazin-1-yl]-N-[3-nitro-4-(oxan-4-ylmethylamino) phenyl] sulfonyl-2-(1H-pyrrolo [2,3-b]pyridin-5-yloxy) benzamide (hereinafter ‘venetoclax’), was conducted.
MV-4-11 cell lines were purchased from the American Type Culture Collection (ATCC). To build a mouse model xenografted with this MV-4-11 cell line, a 5-week-old male BALB/c Nude mouse (hereinafter referred to as “Nude Mouse”) was purchased from Charles River Laboratories Japan, Inc.
The MV-4-11 cell line was injected subcutaneously in a nude mouse with 5×10^6 cells/0.15 mL/mouse, and was allowed to grow. Mice with a tumor volume of 80 to 300 mm^3 (length×width^2×0.5) were selected on the day of administration, separated into 4 groups (7/group) and administered for a total of 21 days so that the average tumor volume in each group was almost the same.
The control group was administered DMSO/PEG400/DW (ratio=0.5/2/7.5, volume/volume/volume) mixed solution orally once a day, and the compound A group was administered 3 mg/kg/day once a day. It was orally administered, and the venetoclax group was orally administered once a day at a dose of 100 mg/kg/day. In the combined group, compound A was administered orally once a day at a dose of 3 mg/kg/day, and venetoclax was administered orally once a day at a dose of 100 mg/kg/day. Each group was administered individual medications for 21 days.
The maximum inhibition rate (%) and the change in weight loss (%) of mice were calculated, and the experimental results are shown in Table 1. The Inhibition rate (IR) was obtained from “(1−mean of individual relative tumor volume in the drug treatment group/average of individual relative tumor volume in the control group)×100%”, and the maximum inhibition rate was the largest inhibition rate during the observation period. The change in weight loss (%) was calculated from “(1−weight on the day of measurement/weight on the start day of administration)×100%”. The relative tumor volume was calculated from “the tumor volume/initial tumor volume×100% at the date of measurement”.

[3] = tested on: relapsed or refractory AML; experiment: Open-label first-in-human dose escalation, exploration and expansion study; assay type: in vivo; conditions: patients with relapsed or refractory AML, single agent, 80 mg dose daily oral
Excerpt: This study is an open-label, first-in-human, dose escalation, exploration, and expansion study of Compound A as a single agent and in combination with venetoclax in patients with relapsed or refractory AML. Cycle 1 in dose escalation is defined as 30 days, all other cycles lasting at least 28 days. Patients will receive oral Compound A at QD on a continuous basis, with the exception of Cycle 1 Day 2 in Part A. The study treatment can continue until a discontinuation criterion is met.
The initial dose level of Compound A as a single agent was 20 mg daily and the decision to dose escalate to the next dose level is made based on the assessment of safety variables including moderate toxicity (MT, a Grade 2 AE judged by the investigator to be related to study drug (except for hematologic toxicities)) or dose limiting toxicity (DLT). This study includes 3 parts: Part A: Dose Escalation; Part B: Dose Exploration; and Part C: Dose Expansion.
Part A includes the initial dose escalation cohorts. Provisional dose escalation scheme with the planned doses of Compound A are as follows: 20 mg, 30 mg, 40 mg, 60 mg, 80 mg, 120 mg, 160 mg, 200 mg, or 240 mg. Patients are treated daily in 28-day cycles except for the Cycle 1 (30 days). The DLT observation period is during Cycle 1 starting with the first dose on Day 1. […]

SMILES	Maximum inhibition (%) [1] [%]	Maximum inhibition (%) ([2]; venetoclax 100 mg/kg)	complete regression (mice per group) ([1]; combined group on 7th day of administration)	clinical response (complete responses) [3]	complete regression (mice out of 7) ([2]; 9th day of administration, venetoclax 100 mg/kg)	partial regression (mice out of 7) ([2]; 16th day of administration)
CC1(C)CCC(CN2CCN(c3ccc(C(=O)NS(=O)(=O)c4ccc(NCC5CCOCC5)c([N+](=O)[O-])c4)c(Oc4cnc5[nH]ccc5c4)c3)CC2)=C(c2ccc(Cl)cc2)C1 [Venetoclax, 4-[4-[[2-(4-chlorophenyl)-4,4-dimethylcyclohexen-1-yl]methyl]piperazin-1-yl]-N-[3-nitro-4-(oxan-4-ylmethylamino)phenyl] sulfonyl-2-(1H-pyrrolo [2,3-b]pyridin-5-yloxy) benzamide, reference compound]	56.3	76.1	–	–	–	–
Cc1ccc2c(-c3nc(Nc4cc(CN5C[C@@H](C)N[C@@H](C)C5)cc(C5CC5)c4)ncc3Cl)c[nH]c2c1 [Compound A, 5-chloro-N-(3-cyclopropyl-5-(((3R,5S)-3,5-dimethylpiperazin-1-yl)methyl)phenyl)-4-(6-methyl-1H-indol-3-yl) pyrimidin-2-amine]	68.1	54.0	not observed	several complete responses	not observed	1 out of 7

— patent publication US20240423979A1, “THERAPEUTICALLY EFFECTIVE COMBINATION OF A FLT3 INHIBITOR AND A BCL-2 INHIBITOR FOR THE TREATMENT OF ACUTE MYELOID LEUKEMIA” (Hanmi Pharm. Co., Ltd., priority 2021, published 2024)
